Source: patent US9034865B2, “Pyrido [4,3-B] indole and pyrido [3,4-B] indole derivatives and methods of use” (Medivation Technologies, Inc., priority 2010, dated 2015)

Experiments:
[1] = biological target: T1, human recombinant serotonin (5-Hydroxytryptamine) 5-HT5A receptor (Homo sapiens, UniProt P47898); experiment: Serotonin 5-HT5A radioligand binding ([3H]LSD); conditions: compound at 0.1 μM; read-out: Percentage inhibition of ligand binding, Serotonin (0.1 μM) 5-HT5A
T1 construct: expressed in transfected cells; host or cells: CHO-K1
T1 sequence (P47898 whole entry): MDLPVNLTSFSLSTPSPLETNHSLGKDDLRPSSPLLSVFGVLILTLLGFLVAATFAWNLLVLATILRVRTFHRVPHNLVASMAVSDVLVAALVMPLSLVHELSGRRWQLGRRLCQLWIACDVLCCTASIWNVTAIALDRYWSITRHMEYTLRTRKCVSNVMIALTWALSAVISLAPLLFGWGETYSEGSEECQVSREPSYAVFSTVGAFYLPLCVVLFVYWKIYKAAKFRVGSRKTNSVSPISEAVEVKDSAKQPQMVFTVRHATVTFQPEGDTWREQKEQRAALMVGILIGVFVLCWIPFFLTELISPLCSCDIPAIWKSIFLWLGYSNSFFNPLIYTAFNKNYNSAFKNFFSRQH
Method: To evaluate in radioligand binding assays the activity of compounds of the invention, human recombinant serotonin (5-Hydroxytryptamine) 5-HT5A receptor expressed in Chinese hamster ovary (CHO) K1 cells (Rees, S. et al, FEBS Lett. 355:242, 1994) in a modified Tris-HCl buffer (50 mM Tris-HCl, pH 7.4, 10 mM MgCl2, 0.5 mM EDTA) was used. Compounds of the invention were incubated with 1.7 nM [^3H]Lysergic acid diethylamide (LSD) for 60 min at 37° C. Non-specific binding was estimated in the presence of 100 μM Serotonin (5-HT). Receptor proteins were filtered and washed, the filters were counted to determine [^3H]LSD specifically bound. Compounds were screened at 1 μM or lower, using 1% DMSO as vehicle. Biochemical assay results are presented as the percent inhibition of specific binding in Table 4.

[2] = biological target: T2, human recombinant serotonin (5-Hydroxytryptamine) 5-HT7 receptor (Homo sapiens, UniProt P34969); experiment: Serotonin 5-HT7 radioligand binding ([3H]LSD); conditions: compound at 0.1 μM; read-out: Percentage inhibition of ligand binding, Serotonin (0.1 μM) 5-HT7
T2 construct: expressed in transfected cells; host or cells: CHO
T2 sequence (P34969 whole entry): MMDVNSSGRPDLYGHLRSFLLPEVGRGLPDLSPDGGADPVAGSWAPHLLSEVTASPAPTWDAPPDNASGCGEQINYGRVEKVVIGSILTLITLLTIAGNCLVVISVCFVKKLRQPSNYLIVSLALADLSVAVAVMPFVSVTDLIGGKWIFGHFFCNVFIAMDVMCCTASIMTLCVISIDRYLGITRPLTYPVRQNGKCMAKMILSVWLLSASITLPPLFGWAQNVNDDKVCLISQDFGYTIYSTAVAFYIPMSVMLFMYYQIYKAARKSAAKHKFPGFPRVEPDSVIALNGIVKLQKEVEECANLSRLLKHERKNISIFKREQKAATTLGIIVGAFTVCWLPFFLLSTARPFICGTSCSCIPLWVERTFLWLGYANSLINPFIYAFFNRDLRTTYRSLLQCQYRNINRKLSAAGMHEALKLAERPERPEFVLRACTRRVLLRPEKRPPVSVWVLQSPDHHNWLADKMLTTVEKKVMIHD
Method: To evaluate in radioligand binding assays the activity of compounds of the invention, human recombinant serotonin (5-Hydroxytryptamine) 5-HT7 receptor expressed in Chinese hamster ovary (CHO) cells (Roth, B. et al, J. Pharmacol. Exp. Ther. 268:1403, 1994; Shen, Y. et al, J. Biol. Chem. 268:18200, 1993) in a modified Tris-HCl buffer (50 mM Tris-HCl, pH 7.4, 10 mM MgCl2, 0.5 mM EDTA) was used. Compounds of invention were incubated with 5.5 nM [^3H] Lysergic acid diethylamide (LSD) for 2 h at 25° C. Non-specific binding was estimated in the presence of 10 μM Serotonin (5-HT). Receptor proteins were filtered and washed, the filters were then counted to determine [^3H]LSD specifically bound. Compounds were screened at 1 μM or lower, using 1% DMSO as vehicle. Biochemical assay results are presented as the percent inhibition of specific binding in Table 4.

[3] = biological target: T3, human recombinant adrenergic α2C receptor (Homo sapiens, UniProt P18825); experiment: Adrenergic α2C radioligand binding ([3H]MK-912); conditions: compound at 0.1 μM; read-out: Percentage inhibition of ligand binding, Adrenergic (0.1 μM) α2C
T3 construct: expressed in transfected cells; host or cells: insect Sf9 cells
T3 sequence (P18825 1-462): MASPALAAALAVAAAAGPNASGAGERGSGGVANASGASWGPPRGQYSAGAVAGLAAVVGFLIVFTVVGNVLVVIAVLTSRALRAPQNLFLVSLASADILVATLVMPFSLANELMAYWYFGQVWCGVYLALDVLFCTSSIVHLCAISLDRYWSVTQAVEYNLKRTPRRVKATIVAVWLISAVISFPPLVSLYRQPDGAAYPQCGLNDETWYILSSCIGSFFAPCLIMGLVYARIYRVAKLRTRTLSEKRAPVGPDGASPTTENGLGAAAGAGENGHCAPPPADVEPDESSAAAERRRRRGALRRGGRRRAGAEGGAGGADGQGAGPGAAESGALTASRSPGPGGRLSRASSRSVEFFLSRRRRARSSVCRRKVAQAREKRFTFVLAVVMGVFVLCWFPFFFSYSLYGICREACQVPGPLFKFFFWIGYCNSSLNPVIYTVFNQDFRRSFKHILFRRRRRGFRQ
Method: To evaluate in radioligand binding assays the activity of compounds of the invention, human recombinant adrenergic α2C receptor expressed in insect Sf9 cells (Uhlen, S. et al, J. Pharmacol. Exp. Ther. 271:1558, 1994) in a modified Tris-HCl buffer (50 mM Tris-HCl, pH 7.4, 12.5 mM MgCl2, 2 mM EDTA) was used. Compounds of the invention were incubated with 1 nM [^3H]MK-912 for 60 min at 25° C. Non-specific binding was estimated in the presence of 10 μM WB-4101. Receptor proteins were filtered and washed, the filters were then counted to determine [^3H]MK-912 specifically bound. Compounds were screened at 1 μM or lower, using 1% DMSO as vehicle. Biochemical assay results are presented as the percent inhibition of specific binding in Table 3.

[4] = biological target: T4, rat adrenergic α1A receptor (Rattus norvegicus, UniProt P43140); experiment: Adrenergic α1A radioligand binding ([3H]Prazosin); conditions: compound at 0.1 μM; read-out: Percentage inhibition of ligand binding, Adrenergic (0.1 μM) α1A
T4 construct: rat adrenergic α1A receptor obtained from Wistar Rat submaxillary glands; from tissue; host or cells: Wistar rat submaxillary glands
T4 sequence (P43140 1-466): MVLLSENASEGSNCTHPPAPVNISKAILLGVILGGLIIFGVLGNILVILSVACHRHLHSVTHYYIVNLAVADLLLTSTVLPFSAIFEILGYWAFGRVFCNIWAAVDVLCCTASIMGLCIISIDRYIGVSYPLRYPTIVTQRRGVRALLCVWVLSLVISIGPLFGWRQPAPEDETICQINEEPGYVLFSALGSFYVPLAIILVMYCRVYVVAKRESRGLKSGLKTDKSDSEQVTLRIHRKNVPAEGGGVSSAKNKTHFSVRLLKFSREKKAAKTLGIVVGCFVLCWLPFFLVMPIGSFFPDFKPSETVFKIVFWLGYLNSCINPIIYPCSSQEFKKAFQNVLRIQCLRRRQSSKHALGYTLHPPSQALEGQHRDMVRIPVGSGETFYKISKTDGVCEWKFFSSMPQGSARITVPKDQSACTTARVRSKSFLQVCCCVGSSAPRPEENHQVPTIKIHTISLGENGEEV
Method: To evaluate in radioligand binding assays the activity of compounds of the invention, rat adrenergic α1A receptor obtained from Wistar Rat submaxillary glands (Michel, A. et al, Br. J. Pharmacol. 98:883, 1989) in a modified Tris-HCl buffer (50 mM Tris-HCl buffer, pH 7.4, 0.5 mM EDTA) was used. Compounds of the invention were incubated with 0.25 nM [^3H]Prazosin for 60 min at 25° C. Non-specific binding was estimated in the presence of 10 μM phentolamine. Receptor proteins were filtered and washed, the filters were then counted to determine [^3H]Prazosin specifically bound. Compounds of the invention were screened at 1 μM or lower, using 1% DMSO as vehicle. Biochemical assay results are presented as the percent inhibition of specific binding in Table 3.

Row | SMILES | inhibition at 0.1 µM [1] [%] | inhibition at 0.1 µM [2] [%] | inhibition at 0.1 µM [3] [%] | inhibition at 0.1 µM [4] [%]
1 | Cc1cc(-c2ccc(F)cc2)c2c(c1)c1c(n2C)CCN(C)C1 [Compound 7] | -4 | 12 | 8 | 1
2 | Cc1cc(C#Cc2cccs2)c2[nH]c3c(c2c1)CN(C)CC3 [Compound 8] | -14 | 6 | 7 | -5
3 | Cc1cc(-c2ccncc2)c2c(c1)c1c(n2C)CCN(C)C1 [Compound 9] | 6 | 26 | 1 | 4
4 | C#Cc1cc(C)cc2c3c(n(C)c12)CCN(C)C3 [Compound 10, 6-Ethynyl-2,3,4,5-tetrahydro-2,5,8-trimethyl-1H-pyrido[4,3-b]indole] | 1 | 14 | 36 | 6
5 | C/C(=C\c1cc(C)cc2c3c(n(C)c12)CCN(C)C3)c1ccncc1 [Compound 11] | -19 | -17 | 12 | -14
6 | Cc1cc(C#Cc2ccc(C)nc2)c2c(c1)c1c(n2C)CCN(C)C1 [Compound 12, 2,3,4,5-tetrahydro-2,5,8-trimethyl-6-(2-(6-methylpyridin-3-yl)ethynyl)-1H-pyrido[4,3-b]indole] | -21 | 5 | 3 | -12
7 | Cc1cc(CCc2ccc(C)nc2)c2c(c1)c1c(n2C)CCN(C)C1 [Compound 13] | 15 | 16 | 2 | 2
8 | Cc1cc(/C=C/c2ccc(C)nc2)c2c(c1)c1c(n2C)CCN(C)C1 [Compound 14] | -7 | 13 | 1 | -16
9 | C/C(=C\c1cc(C)cc2c3c(n(C)c12)CCN(C)C3)c1ccc(C)nc1 [Compound 15] | 11 | 36 | -14 | 3
10 | Cc1cc(C#Cc2nccs2)c2[nH]c3c(c2c1)CN(C)CC3 [Compound 16] | -2 | 35 | 5 | -1
11 | Cc1cc(C#Cc2ccncc2)c2c(c1)c1c(n2C)CCN(C)C1 [Compound 17] | 15 | 23 | 3 | -2
12 | Cc1ccc(C#Cc2cc(Cl)cc3c4c(n(C)c23)CCN(C)C4)cn1 [Compound 18] | 17 | 8 | 0 | 14
